Test results: patent US20160137685A1, “NUCLEOSIDE PHOSPHORAMIDATES AND PHOSPHORAMIDITES” (priority 2013, published 2016)

Key:
AGS gastric cancer cells = assay: MTT cell viability assay, AGS gastric cancer cells; type: cell-based; conditions: 72 hours, 1.0-20 μM (0.01-20 μM), calculated with Compusyn software
Method: (§1) FIG. 3. Floxphosteridine and floxuridine anticancer activity in vitro against AGS gastric cancer cells. AGS gastric cancer cells were treated with various concentrations (0.01 μM-20 μM) of floxphosteridine and floxuridine for 72 hours, and cell viability was evaluated with MTT cell viability assay.
(§2) We treated three cancer cell lines with various concentrations of Floxphosteridine (compound Ic) and floxuridine for 72 hours. The structure of floxuridine is shown below:
(§3) The SK-HEP-1 and HEPG2 cell lines used in these experiments represent in vitro models for hepatic cancer. The AGS cancer cell line is an in vitro model for gastric cancer.
In FIG. 3, the two compounds were tested for anticancer activity against AGS gastric cancer cells. The cells were treated with various concentrations (1.0-20 μM) of floxphosteridine and floxuridine for 72 hours, and cell viability was evaluated with the MTT assay.

[1] = system: HEPG2 hepatic cancer cells; assay: MTT cell viability assay, HEPG2 hepatic cancer cells; type: cell-based; conditions: 72 hours, 1.0-20 μM, calculated with Compusyn software
Method: as §1, with “2.” for “3.”, “HEPG2 hepatic” for “AGS gastric”, “(1.0” for “(0.01”
as §2, §3
In FIG. 2, the two compounds were tested for anticancer activity against HEPG2 hepatic cancer cells. The cells were treated with various concentrations (1.0-20 μM) of floxphosteridine and floxuridine for 72 hours, and cell viability was evaluated with the MTT assay.

[2] = system: SK-HEP-1 hepatic cancer cells; assay: MTT cell viability assay, SK-HEP-1 hepatic cancer cells; type: cell-based; conditions: 72 hours, 0.01-20 μM, calculated with Compusyn software
Method: as §1, with “1.” for “3.”, “SK-HEP-1 hepatic” for “AGS gastric”
as §2, §3
In FIG. 1, SK-HEP-1 hepatic cancer cells were treated with various concentrations (0.01-20 μM) of floxphosteridine and floxuridine for 72 hours, and cell viability was evaluated with the MTT assay.

[3] = healthy volunteers, single ascending doses up to 800 mg once daily; cited from earlier work

floxuridine
IC50 (AGS gastric cancer cells): 5.71 µM
IC50 [1]: 10.4 µM
IC50 ([2]; SK-HEP-1 cells): 0.8 µM

CC(C)OC(=O)[C@H](C)N[P@](=O)(OC[C@H]1O[C@@H](n2ccc(=O)[nH]c2=O)[C@](C)(F)[C@@H]1O)Oc1ccccc1 (racemic) [PSI-7851]
safety and tolerability [3]: generally safe and well tolerated, with no dose-limiting toxicities
systemic exposure profile (pharmacokinetic results) [3]: rapid uptake of the drug by the liver and low plasma exposure to the prodrug PSI-7851

CC(C)OC(=O)[C@H](C)N[P@](=O)(OC[C@H]1O[C@@H](n2cc(F)c(=O)[nH]c2=O)C[C@@H]1O)Oc1ccccc1 [floxphosteridine]
IC50 (AGS gastric cancer cells; Homo sapiens): 7.26 µM
IC50 ([1]; Homo sapiens): 13.3 µM
IC50 ([2]; Homo sapiens, SK-HEP1, SK-HEP-1 cells): 31.7 µM
